In data set [1] the test system is TNF-α. The note with it: associated with HIV-1 inhibition; cited from earlier work.
For a further data set, the system named is HIV-1. The note with it: advanced HIV-1 infection and AIDS; cited from earlier work.
A further data set concerns latent HIV-1. The conditions noted are these: monocytoid (U1) cell line; cited from earlier work.
Another data set has as its system monocytes. Nature of the data set: Inhibition of monocyte chemotaxis. The arrangement: key to EFFECT: NE: No effect; NT: Not tested; INHIB: Inhibition; STIM: Stimulation; IC20: 20% Inhibitory Concentration; EC50: 50% Effective Concentration; TC: Tolerated Concentration. The conditions noted are these: chemoattractant FMLP. Type of data set: cell-based, human. The procedure: Inhibition of Monocyte Chemotaxis:
Monocytes are prepared as previously described, and resuspended at 5×10^6 cells/ml in HBSS, 0.1% BSA (HBSS-BSA). Fluorophore labeling of the cells is carried out by adding calcein-AM to the above cells at a final concentration of 2 μM. Following a 30 minute incubation at 37° C. in humidified 5% CO2, the labeled monocytes are washed twice and incubated in a range of dilutions of the test materials for 60 minutes at 37° C. in humidified 5% CO2. The pre-treated, calcein-AM loaded cells are then added in triplicate to the wells of the top compartment of a NeuroProbe (Cabin, John, M.D.) 96-well chemotaxis chamber (2×10^5 cells/well) and permitted to migrate through a 10 μm thick bonded polycarbonate membrane (5 μm porosity; NeuroProbe Inc; Cabin, John, M.D.) towards the wells of the lower compartment containing the chemoattractant (FMLP) at 5×10^-9 M. After a 90 minute incubation at 37° C. in a humidified chamber, the wells of the upper chambers are aspirated, the monocyte-associated membrane removed, non-migrating cells wiped off and the filters permitted to air dry to 15 minutes. The number of cells migrating through the membranes are quantified by measuring the fluorescent intensity of the migrating cells in a fluorescent microplate reader (CytoFluor 2300, Millipore Corp., Bedford, Mass.)

The subject of data set [2] is human peripheral blood mononuclear cells (PBMC). Nature of the data set: PBMC proliferation to mitogens (PHA). The arrangement: key: NE: No effect; NT: Not tested; INHIB: Inhibition; STIM: Stimulation; IC20: 20% Inhibitory Concentration; EC50: 50% Effective Concentration; TC: Tolerated Concentration. Type of data set: cell-based. How it is done:
(§1) Human Peripheral Blood Mononuclear Cell (PBMC) Isolation:
(§2) Venous blood is obtained from healthy volunteers and mixed with an equal volume of sterile isotonic saline/10 mM HEPES and placed into 50 ml conical polypropylene tubes in 30 ml aliquots. Each aliquot of diluted blood is underlaid with 20-25 ml of sterile Lymphocyte Separation Medium (LSM; Organon-Technika, Durham, N.C.). The tubes are centrifuged at 400 g for 40 minutes at room temperature. The mononuclear cells at the interface are removed and washed twice in sterile isotonic saline/10 mM HEPES followed by a wash in Hank's Balanced Salt Solution (HBSS) or RPMI without serum, depending on their intended use. Cell concentrations for each donor are determined by counting in a haematology and analyser (Serono-Baker).
PBMC Proliferation to Mitogens (PHA):
PBMC are adjusted to 4×10^6 /ml in complete medium. To each well of a 96 well flat bottom tissue culture plate (Falcon 3072) is added 50 μl of cell suspension. Test materials (diluted in complete medium to 2× the desired final concentration) are added in 100 μl volumes to each well. […] The contents of the wells are harvested onto glass fibre filters using a multiple automated sample harvester (Tomtec), and the incorporated […] determined by liquid scintillation spectrophotometry and represented an cpm (counts per minute) incorporated per well.

The nature of a further data set: MTS. The class given is cell-based. The arrangement: key to EFFECT: NE: No effect; NT: Not tested; INHIB: Inhibition; STIM: Stimulation; IC20: 20% Inhibitory Concentration; EC50: 50% Effective Concentration; TC: Tolerated Concentration.
In a further data set the test system is superoxide anion. Nature of the data set: Monocyte superoxide anion (O2) release. The class given is cell-based, human. Details: key to EFFECT: NE: No effect; NT: Not tested; INHIB: Inhibition; STIM: Stimulation; IC20: 20% Inhibitory Concentration; EC50: 50% Effective Concentration; TC: Tolerated Concentration. The procedure: Monocyte Superoxide Anion (O2) Release:
Monocytes are prepared as described above and resuspended to 5×10^6 /ml in HBSS containing 10 Mm HEPES, 2 g/l glucose, 0.1% BSA, Ph 7.2. To each well of a 96-well flat bottom, tissue culture plate is added 100 μl of cell suspension and 100 μl of buffer or test materials. Samples are run in quadruplicate. The plate is incubated for 60 min. at 37° C. followed by the addition of 50 μl of buffer containing cytochrome C (5 mg/ml; type VI, horse heart, Sigma) and bovine liver catalase (1500 U/ml; Sigma) in the presence of zymosan A ([…]; 750 μg/ml; Sigma). The plate is incubated an additional 120 minutes at 37° C. during which the absorbance at 550 nm is monitored using a microplate reader incorporating dedicated software for kinetic analysis (Molecular Devices; Menlo Park, Calif.).

Another data set relates to IL-8. Nature of the data set: Monocyte release of IL-8. The class given is cell-based, human. Details: key to EFFECT: NE: No effect; NT: Not tested; INHIB: Inhibition; STIM: Stimulation; IC20: 20% Inhibitory Concentration; EC50: 50% Effective Concentration; TC: Tolerated Concentration. The note with it: IL8.
Data set [3] can be described thus: Endotoxin testing (kinetic chromogenic procedure). Details: key: NE: No effect; NT: Not tested; INHIB: Inhibition; STIM: Stimulation; IC20: 20% Inhibitory Concentration; EC50: 50% Effective Concentration; TC: Tolerated Concentration. How it is done:
All batches of media and reagents are tested to ensure they are free of endotoxins before they are used. This laboratory uses a kinetic chromogenic procedure (Kinetic QCL; Whittaker Bioproducts) for the determination of endotoxin, performed using the Thermomax Plate reader from Molecular Devices. The plate reader incorporates dedicated software for the computer analysis of all data. Samples are tested following the manufacturer's instructions, at 3 different concentrations, in triplicate. Reference Standard Endotoxin (United States Pharmacopeia) obtained at a concentration of 10,000 endotoxin units/ml, is used to generate a standard curve to determine the actual concentration of endotoxin in the samples (sensitivity =/>0.005 endotoxin units/ml).

The next data set concerns IL-6. Nature of the data set: Monocyte release of IL-6. Type of data set: cell-based, human. Details: key to EFFECT: NE: No effect; NT: Not tested; INHIB: Inhibition; STIM: Stimulation; IC20: 20% Inhibitory Concentration; EC50: 50% Effective Concentration; TC: Tolerated Concentration. The conditions noted are these: IL6.
The next data set can be described thus: LDH. Type of data set: cell-based. Details: key to EFFECT: NE: No effect; NT: Not tested; INHIB: Inhibition; STIM: Stimulation; IC20: 20% Inhibitory Concentration; EC50: 50% Effective Concentration; TC: Tolerated Concentration.
The next data set has as its system PAF. The experiment in a line: Monocyte release of PAF. The class given is cell-based, human. The arrangement: key: NE: No effect; NT: Not tested; INHIB: Inhibition; STIM: Stimulation; IC20: 20% Inhibitory Concentration; EC50: 50% Effective Concentration; TC: Tolerated Concentration. The note with it: zymosan A stimulated. The procedure: (§3) Monocyte Release of PGE2, LTB4, and PAF:
(§4) Monocytes isolated as described above, were washed and resuspended in RPM1 containing 5 mg/ml HSA at 2×10^6 cells/ml and added to wells of a 48-well plates. The cells were allowed to adhere for 2 hours then washed in HBSS-BSA-HEPES buffer. Test materials were added at four concentrations (175 μl) for 60 minutes; then the monocytes were stimulated by addition of […] zymosan A (175 μl of 2× desired final concentration added). Supernatant medium was collected from the wells after 90 minutes incubation and stored at -20° C. until assayed. Supernatants were assayed for PGE2, LTB4 or PAF using specific scintillation proximity assays (SPA).

The test system of data set [4] is TNF-α. Nature of the data set: Monocyte release of TNF-α. The class given is cell-based, human. The arrangement: key to EFFECT: NE: No effect; NT: Not tested; INHIB: Inhibition; STIM: Stimulation; IC20: 20% Inhibitory Concentration; EC50: 50% Effective Concentration; TC: Tolerated Concentration. The note with it: TNFα.
Data set [5] has as its system human peripheral blood mononuclear cells (PBMC). Nature of the data set: Two-way mixed lymphocyte reaction (MLR). The class given is cell-based. The arrangement: key: NE: No effect; NT: Not tested; INHIB: Inhibition; STIM: Stimulation; IC20: 20% Inhibitory Concentration; EC50: 50% Effective Concentration; TC: Tolerated Concentration. How it is done:
as §1, §2
Two-Way Mixed Lymphocyte Reaction (MLR):
PBMC are prepared as described for the mitogen assays, but resuspended to 2×10^6 cells/ml in complete medium. Fifty μl of cell suspension from two different individuals is then added to each well of a 96-well flat bottom tissue culture plate. An additional 100 μl of complete medium, dexamethasone or test compounds are then added to each well, the plates are incubated for 6 days at 37° C., and then pulsed with ^3 H-thymidine and harvested as previously described.

The subject of a further data set is LTB4. The experiment in a line: Monocyte release of LTB4. Type of data set: cell-based, human. The arrangement: key: NE: No effect; NT: Not tested; INHIB: Inhibition; STIM: Stimulation; IC20: 20% Inhibitory Concentration; EC50: 50% Effective Concentration; TC: Tolerated Concentration. The note with it: zymosan A stimulated. The procedure: as §3, §4
For the next data set, the system named is Tissue Factor. Nature of the data set: Monocyte procoagulant activity (Tissue Factor). The class given is cell-based, human. The arrangement: key to EFFECT: NE: No effect; NT: Not tested; INHIB: Inhibition; STIM: Stimulation; IC20: 20% Inhibitory Concentration; EC50: 50% Effective Concentration; TC: Tolerated Concentration. How it is done:
Monocyte Procoagulant Activity (Tissue Factor):
The adhered monocytes remaining on the 48-well tissue culture plates after removal of the supernatants above, are used to measure levels of Tissue Factor production. The cells are solubilized overnight at 4° C. in 10% Triton-X100 in PBS, diluted to 1% Triton-X100 with PBS then assayed by ELISA for Tissue Factor.

In the next data set the test system is IL-1β. The experiment in a line: Monocyte release of IL-1β. The class given is cell-based, human. The arrangement: key to EFFECT: NE: No effect; NT: Not tested; INHIB: Inhibition; STIM: Stimulation; IC20: 20% Inhibitory Concentration; EC50: 50% Effective Concentration; TC: Tolerated Concentration. The conditions noted are these: IL1β.
The next data set has as its system GM-CSF. Nature of the data set: Monocyte release of GM-CSF. The class given is cell-based, human. The arrangement: key to EFFECT: NE: No effect; NT: Not tested; INHIB: Inhibition; STIM: Stimulation; IC20: 20% Inhibitory Concentration; EC50: 50% Effective Concentration; TC: Tolerated Concentration.
A further data set concerns PGE2. The experiment in a line: Monocyte release of PGE2. Details: key: NE: No effect; NT: Not tested; INHIB: Inhibition; STIM: Stimulation; IC20: 20% Inhibitory Concentration; EC50: 50% Effective Concentration; TC: Tolerated Concentration. The note with it: zymosan A stimulated. Type of data set: cell-based, human. How it is done: as §3, §4

Regarding `O=C1CCC(N2C(=O)c3ccccc3C2=O)C(=O)N1` (centres unmarked) [Thalidomide], the “agonist-induced TNF-α protein and mRNA production” value in the data set on TNF-α [1] was “reduction”. Besides, in the data set with HIV-1, the “inhibition of activation of virus in PBMC, patients” value was 16 out of 17. For the same molecule, the “activation of latent HIV-1” value in the data set on latent HIV-1 was “suppress the activation of latent HIV-1”.
As a reminder, the EC50 is the concentration at which the effect is half-maximal. Regarding `CCCCCCCCCCCCCCCC(=O)OCC[N+](C)(C)CCOCn1cc(C)c(=O)[nH]c1=O` [Example 6, N,N-Dimethyl-N-2-(hexadecanoyloxy)ethyl-N-[N^1-(5-methyl-2,4-dioxopyrimidinyl)methoxyethyl]ammonium iodide], the EC50 was 47 µM in the data set on monocytes (Homo sapiens, Monocyte); 34 µM with superoxide anion (Homo sapiens, Monocyte); 2900 nM in the data set on IL-8 (Homo sapiens, Monocyte); 5.7 µM in the data set on IL-6 (Homo sapiens, Monocyte); 5.5 µM in the data set with TNF-α [4] (Homo sapiens, Monocyte); 4.3 µM in the data set on Tissue Factor (Homo sapiens, Monocyte). For the same molecule, the EC50 with IL-1β (Homo sapiens, Monocyte) is 7.5 µM; in the data set with GM-CSF (Homo sapiens, Monocyte), 12.6 µM. Besides, the EFFECT result with monocytes is listed as “INHIB”; in data set [2], “NE”; in the data set “MTS” it was “TC”; in the data set with superoxide anion it was “INHIB”; in the data set on IL-8, “INHIB”; in data set [3], “NE”. In addition, the EFFECT entry in the data set with IL-6 is “INHIB”; in the data set “LDH”, “TC”; with PAF, “NE”; with TNF-α [4] it was “INHIB”; in data set [5], “NE”; in the data set on LTB4 it was “NE”. Further, the EFFECT result in the data set on Tissue Factor is recorded as “INHIB”; with IL-1β, “INHIB”; in the data set on GM-CSF, “INHIB”; in the data set with PGE2, “NE”. Also, the MNTC in the data set “MTS” (mts assay, effect TC, read-out: Tolerated Concentration (EC50)) was found to be 100 µM; in “LDH” (ldh assay, effect TC, read-out: Tolerated Concentration (EC50)), 100 µM.

Source of the values: patent US5679684A, “Hydroxyalkylammonium-pyrimidines and nucleoside derivatives, useful as inhibitors of inflammatory cytokines” (Macronex, Inc., priority 1995, dated 1997).
